Results on 18 molecules are retold here after US20160368992A1, “A METHOD OF INCREASING GIPCR SIGNALIZATION IN THE CELLS OF A SCOLIOTIC SUBJECT” (CHU SAINTE-JUSTINE, priority 2013, published 2016).

The test system of data set [1] is Gi1, Gi2, Gi3 proteins. Kind of data set: Immunoprecipitation/Western blot: phosphorylation of Gi proteins in MC3T3-E1 cells. In kind it is cell-based. The following applies: MC3T3-E1 treated with rOPN in presence of kinase inhibitor. How it is done: Given that the defective GiPCR signaling associated with idiopathic scoliosis has causatively been related to increased phosphorylation of Gi proteins (Moreau et al., 2004), it was of interest to examined whether OPN influences the phosphorylation status of Gi proteins. Accordingly, MC3T3-E1 cells were treated with rOPN, then cell lysates were immunoprecipitated with antibodies against Gi1, Gi2 or Gi3 protein isoforms, and the phosphorylation level was examined by Western blot using anti-phospho serine/threonine or anti-tyrosine antibodies. […] However, band density was higher in OPN-treated cells.
To support the involvement of α5β1 integrin in this process, cells were pre-treated with antibody against α5β1 integrin prior to rOPN treatment.
Cell extracts prepared from MC3T3-E1 that had been treated with rOPN in the presence or absence of an inhibitor specific for each kinase were subjected to immunoprecipitation and Western blot analysis. […] However, both serine and tyrosine phosphorylation were attenuated by inhibitors of FAK (FAK inhibitor-14), Scr (PP2), CaMKII (KN93), PI3K (wortmannin-data not shown), MEK (PD98059), ERK1/2 (FR180204), JNK (SP60125) and P38 (SB203580).

Data set [2] deals with GiPCR signaling. Description: CDS integrated response to GiPCR ligands in MC3T3-E1 osteoblastic cell line. In kind it is cell-based. The following applies: for response in the presence of rOPN after siRNA transfection: MC3T3-E1, compared with untreated cells. How it is done:
The functional evaluation of Gi, Gs and Gq proteins was assessed by CDS assays using osteoblasts cells derived from C57Bl/6j WT and C57Bl/6j OPN^−/− mice (bipedal and quadrupedal) using CellKey™ apparatus, as previously described (Akoume et al., 2010, and WO 2010/040234 to Moreau et al.).
MC3T3-E1 cells were used to check the effect of the knockdown of OPN and its receptors. MC3T3-E1 osteoblasts cells were transiently transfected in serum-free medium, using Lipofectamine™ RNAiMAX reagent (Invitrogen) according to the manufacturer's instructions and functional experiments were performed 48 h post transfection. The sequence of RNA oligonucleotides used for the knockdown of different genes are, ssp1 (encodes OPN) (CCACAGCCACAAGCAGUCCAGAUUA (SEQ ID NO: 9)), integrin β1 (CCUAAGUCAGCAGUAGGAACAUUAU (SEQ ID NO: 10)), integrin β3 (CCUCCAGCUCAUUGUUGAUGCUUAU (SEQ ID NO: 11)), integrin α5 (CCGAGUACCUGAUCAACCUGGUUCA (SEQ ID NO: 12)), integrin α8 (GAGAUGAAACUGAAUUCCGAGAUAA (SEQ ID NO: 13)), integrin αv (GACUGUUGAGUAUGCUCCAUGUAGA (SEQ ID NO: 14 and CD44 (GAACAAGGAGUCGUCAGAAACUCCA (SEQ ID NO: 15)). Two other siRNAs against integrin α5 were tested (UCCACCAUGUCUAUGAGCUCAUCAA (SEQ ID NO:16) and UCAGGAGCAGAUUGCAGAAUCUUAU (SEQ ID NO:17)).
To further investigate the role of OPN in Gi protein-mediated receptor signaling, several lines of experiments were performed using MC3T3-E1 osteoblastic cell line. Since these cells express OPN, was first examined whether depletion of OPN by siRNA influences the capacity of GiPCR ligands to induce cell signaling as measured by CDS in MC3T3-E1 cells. […] Similar results were obtained when cells were stimulated with oxymethazolin. […] To confirm this hypothesis, cells were treated with exogenous recombinant OPN (rOPN) prior to DAMGO and oxymethazolin stimulation.

Data set [3] deals with GsPCR signaling. Description: CDS response to GsPCR stimulation (isoproterenol, desmopressin) in MC3T3-E1 cells. In kind it is cell-based. The note with it: rOPN in combination with Src inhibitor; isoproterenol, similar with desmopressin. The text has this: Taken into account these considerations and having observed that genetic deletion of OPN inversely influenced response to Gi and Gs stimulation (FIG. 1), it was of interest to examine the effect of OPN on the functional and phosphorylation status of Gs protein and on its interaction with receptors. For this purpose, cells were subjected to isoproterenol and desmopressin in the presence of rOPN or PBS. As expected, response to isoproterenol was higher in rOPN than in PBS-treated cells.
Assuming that inhibition of Gi protein and phosphorylation of Gs protein are responsible for the increased GsPCR signaling associated with rOPN, the next experiments aimed to determine the contribution of each parameter. For this purpose, cells were treated with PTX to mimic disruption action of rOPN and compared to cells treated with rOPN alone or in combination with Src inhibitor (PP2) to prevent tyrosine phosphorylation. […] This modest difference was abolished by Src inhibitor (PP2). Similar observations were noted when cells were stimulated with desmopressin.

In data set [4] the test system is GiPCR signaling. Description: CDS (CellKey) functional evaluation of Gi protein-mediated receptor signaling in primary mouse osteoblasts. It counts as cell-based, mice.
The target in data set [5] is RGD-dependent integrins expressed in osteoblasts. Kind of data set: cell-based or functional assay.
[6] abbreviates: osteoblasts from WT and OPN-/- mice, increasing agonist concentration.

“Also recorded” adds a separate entry of the source. Like-named read-outs stand apart in the source and are kept apart here. Bounds are passed on as bounds.

With `Nc1cc(N)c(N)cc1N` [FAK inhibitor-14], in data set [1], the “level of serine phosphorylation in the Gi protein precipitates” value (“level of serine phosphorylation” below) is on record as “attenuated” and the “tyrosine phosphorylation levels in the Gi protein precipitates” value (“tyrosine phosphorylation levels” for short) is given as “attenuated”.
Take “CD44 siRNA: siRNA for knockdown of CD44: GAACAAGGAGUCGUCAGAAACUCCA (guide GAACAAGGAGUCGUCAGAAACUCCA; listed as RNA, chemistry not given here)”: the “effect on the inhibitory effect of rOPN on response to DAMGO and oxymethazolin” value in data set [2] (MC3T3-E1 cells, rOPN present) is listed as “did not prevent; also recorded: further aggravated the defect”.
`C[S+]([O-])c1ccc(-c2nc(-c3ccncc3)c(-c3ccc(F)cc3)[nH]2)cc1` (centres unmarked) [SB203580]: in data set [1], the “level of serine phosphorylation” value is “attenuated” and the “tyrosine phosphorylation levels” value is reported as “attenuated”.
As for “α5 siRNA: siRNA against integrin α5: CCGAGUACCUGAUCAACCUGGUUCA; two others (SEQ ID NO:16, 17) also tested (guide CCGAGUACCUGAUCAACCUGGUUCA; listed as RNA, chemistry not given here)”, the “response in the presence of rOPN after siRNA transfection” value in data set [2] was “high response”.
Consider `CC(C)(C)n1nc(-c2ccc(Cl)cc2)c2c(N)ncnc21` [PP2], for which, in data set [1], the “level of serine phosphorylation” value is “attenuated” and the “tyrosine phosphorylation levels” value was “attenuated”. Further, in data set [3], the “difference in response between rOPN-treated and PTX-treated cells” value was “abolished”.
In the case of `C[C@@H](NC(=O)[C@@H](N)Cc1ccc(O)cc1)C(=O)NCC(=O)N(C)[C@@H](Cc1ccccc1)C(=O)NCCO` [DAMGO], the “response to GiPCR agonist” value in data set [4] (setting [6]) is “concentration-dependent increase of response”.
On to `Cc1cc(C(C)(C)C)c(O)c(C)c1CC1=NCCN1` [oxymethazolin], for which, in data set [4] (setting [6]), the “response to GiPCR agonist” value is “concentration-dependent increase of response”.
hyaluronic acid [HA]: the “sensitivity of GiPCR signaling to CD44 inhibition” value in data set [4] (CD44-/- osteoblasts) was “does not show any sensitivity”. For the same molecule, the GiPCR signaling defects entry in data set [4] (wild type osteoblasts, compared to the control) is given as “exacerbated”. For the same molecule, the “GiPCR signaling defect / inhibitory effect of OPN when CD44 is inhibited” value in data set [4] (wild type osteoblasts, in presence of rOPN) is “intensified; also recorded: exacerbate the signaling defect”.
For the molecule `O=C1c2ccccc2-c2n[nH]c3cccc1c23` [SP60125], in data set [1], the “level of serine phosphorylation” value is listed as “attenuated” and the “tyrosine phosphorylation levels” value is recorded as “attenuated”.
Regarding “OPN siRNA: siRNA for knockdown of ssp1 (encodes OPN): CCACAGCCACAAGCAGUCCAGAUUA”, the “integrated response to DAMGO and oxymethazolin” value in data set [2] (MC3T3-E1 cells, endogenous OPN depleted or blocked, no exogenous rOPN) is given as “significantly greater”.
With `COc1ccc2c(c1)c(C1=C(c3c[nH]c4ccccc34)C(=O)NC1=O)cn2CCCN(C)C` [Gö6983], in data set [1], the “level of serine phosphorylation” value is “attenuated” and the “tyrosine phosphorylation levels” value was “without effect”.
RGD peptide: in data set [5], the RGD concentration reversing the inhibitory effect of OPN on response to DAMGO and oxymethazolin (CDS) is above 10 µg/mL.
On to `COc1ccc(S(=O)(=O)N(CCO)c2ccccc2CN(C)C/C=C/c2ccc(Cl)cc2)cc1` [KN93], for which, in data set [1], the “level of serine phosphorylation” value is “attenuated” and the “tyrosine phosphorylation levels” value is “attenuated”.
With `COc1cccc(-c2cc(=O)c3ccccc3o2)c1N` [PD98059], in data set [1], the “level of serine phosphorylation” value is “attenuated” and the “tyrosine phosphorylation levels” value was “attenuated”.
Consider pertussis toxin [PTX], for which the “cellular responses to each of the four tested agonists after PTX pre-treatment” value in data set [4] (osteoblasts from WT and OPN-/- mice, DAMGO, somatostatin, oxymethazolin, apelin) was “largely reduced”.
In the case of `Nc1[nH]nc2nnc(-c3c(-c4ccccc4)nn4ccccc34)cc12` [FR180204], in data set [1], the “level of serine phosphorylation” value is given as “attenuated” and the “tyrosine phosphorylation levels” value is recorded as “attenuated”.
For the molecule apelin, the “response to GiPCR agonist” value in data set [4] is on record as “concentration-dependent increase of response”.
On to “β1 siRNA: siRNA against integrin β1: CCUAAGUCAGCAGUAGGAACAUUAU (guide CCUAAGUCAGCAGUAGGAACAUUAU; listed as RNA, chemistry not given here)”, for which the “response in the presence of rOPN after siRNA transfection” value in data set [2] is recorded as “high response”.
